The NIST ThermoML archive (doi:10.1016/j.tca.2015.03.016)
“And” between values parts separate entries of the source, which are not always exact repeats. Equal values may be shown once.

Conditions: Liquid, Transpiration method

CN(C)C1CCCCC1 [N,N-dimethylcyclohexylamine]
Conditions | vapor or sublimation pressure
275.3 K | 0.0902 kPa and 0.0943 kPa
275.4 K | 0.0923 kPa
278.3 K | 0.1123 kPa
281.2 K | 0.1456 kPa
284.2 K | 0.1766 kPa
287.2 K | 0.2125 kPa
290.3 K | 0.2601 kPa
293.2 K | 0.3186 kPa
296.2 K | 0.383 kPa
299.2 K | 0.472 kPa
302.2 K | 0.5659 kPa
305.3 K | 0.6634 kPa
308.3 K | 0.8071 kPa
311.2 K | 0.912 kPa
314.3 K | 1.106 kPa

C1CCC(NC2CCCCC2)CC1 [N-cyclohexylcyclohexanamine]
Conditions | vapor or sublimation pressure [kPa]
295.4 K | 0.00322
298.3 K | 0.00416
301.2 K | 0.0055
304.2 K | 0.00706
307.2 K | 0.00889
310.2 K | 0.01123
313.2 K | 0.01433
315.1 K | 0.0165
318.3 K | 0.02093
321.2 K | 0.02576
324.2 K | 0.03192
327.2 K | 0.03941
330.2 K | 0.0492
333.2 K | 0.05903

CNC1CCCCC1 [N-methylcyclohexylamine]
Conditions | vapor or sublimation pressure [kPa]
275.2 K | 0.1412
278.2 K | 0.1788
281.2 K | 0.2211
284.2 K | 0.2727
287.2 K | 0.3362
290.4 K | 0.4224
293.2 K | 0.4889
296.2 K | 0.606
299.2 K | 0.7392
302.2 K | 0.8882
305.2 K | 1.044
308.3 K | 1.278
311.2 K | 1.51
314.2 K | 1.784

NC1CCCCC1 [cyclohexylamine]
Conditions | vapor or sublimation pressure [kPa]
283.2 K | 0.4635
286.2 K | 0.5583
290.1 K | 0.7237
293.3 K | 0.9124
296.2 K | 1.06
298.1 K | 1.182
299.3 K | 1.28
302.3 K | 1.541
305.3 K | 1.788
308.3 K | 2.115
